These results are taken from PubChem BioAssay AID1033 (Sanford-Burnham Center for Chemical Genomics, 2008).

Structures are written as SMILES. The source made the active and inactive calls. No rule for the calls is given here.

By Kd is commonly meant the constant that tells how readily two partners part at equilibrium.

Chaperone protein DnaK (Escherichia coli (strain K12)), sequence (P0A6Y8 whole entry, looked up, the tested form may be a part): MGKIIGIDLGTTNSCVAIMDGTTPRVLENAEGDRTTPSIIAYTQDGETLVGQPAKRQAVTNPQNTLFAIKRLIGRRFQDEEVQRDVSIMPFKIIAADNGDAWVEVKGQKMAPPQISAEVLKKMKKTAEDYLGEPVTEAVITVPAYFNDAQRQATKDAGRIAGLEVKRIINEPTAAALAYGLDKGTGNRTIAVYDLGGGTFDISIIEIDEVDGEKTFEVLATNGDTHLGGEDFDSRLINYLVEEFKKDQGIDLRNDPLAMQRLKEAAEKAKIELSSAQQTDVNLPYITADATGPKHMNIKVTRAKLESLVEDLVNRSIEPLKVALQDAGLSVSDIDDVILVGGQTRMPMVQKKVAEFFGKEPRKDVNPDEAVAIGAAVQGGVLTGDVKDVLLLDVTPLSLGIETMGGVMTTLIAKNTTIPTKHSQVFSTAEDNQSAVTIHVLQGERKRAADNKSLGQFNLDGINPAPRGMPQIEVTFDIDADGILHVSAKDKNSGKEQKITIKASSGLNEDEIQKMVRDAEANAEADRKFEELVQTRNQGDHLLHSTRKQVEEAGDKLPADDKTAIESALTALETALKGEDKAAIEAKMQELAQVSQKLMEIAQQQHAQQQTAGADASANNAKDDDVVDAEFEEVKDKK

The assay concerns the target Chaperone protein DnaK (Escherichia coli (strain K12)) (UniProt P0A6Y8). Briefly: binders of DnaK substrate-binding domain, biophysical, NMR, chaperone (AID 1033). The following applies: Purified DnaK SBD, NMR ligand binding.
Take `CC(=O)OC[C@@]1(O)C[C@@]23CCC4c5ccoc5CC[C@]4(C)C2CC[C@@H]1C3` (stereo not given in full): the Kd is > 4 mM (inactive). The figure for `C=C1C2CC[C@H]3[C@]4(C)C[C@H](OC5OC(CO)C(OS(=O)(=O)O)C(OS(=O)(=O)O)C5OC(=O)CC(C)C)C[C@@H](C(=O)O)[C@H]4CC[C@]3(C2)[C@H]1O` (stereo not given in full) is > 4 mM (inactive); for `Cc1cc2ncn(S(=O)(=O)N3CCOCC3)c2cc1C` it is > 4 mM (inactive); for `CC1CCC2(OC1)OC1CC3C4CCC5C[C@@H](O)CCC5(C)C4=CCC3(C)C1[C@@H]2C` (stereo not given in full) it is > 4 mM (inactive). The figure for `Cc1nn2c(nc1=O)SCC(c1ccccc1)=N2` is > 4 mM (inactive); for `O=C1NC(=S)NC(=O)C1=Cc1cccs1` it is > 4 mM (inactive). The result for `CNC(=O)c1ccccc1N` reads > 4 mM (inactive); that for `CN1CCC(N(C)Cc2cccnc2)CC1`, > 4 mM (inactive). `C=CCc1ccc2c(c1)OCO2`: the Kd was > 4 mM (inactive). Turning to `COC(=O)N1CCN(c2ccc(OC)cc2)CC1`, the Kd is > 4 mM (inactive). The result for `Cc1ccc(C(=O)Nc2nnc(-c3ccncc3)s2)o1` reads > 4 mM (inactive); that for `NC(=O)c1ccccc1N=Cc1ccco1`, > 4 mM (inactive); that for `C=C1CCC(C2CC(=O)OC2=O)C(=O)CCC2C1CC2(C)C` (stereo not given), > 4 mM (inactive). The figure for `CNC(=S)Nc1ncn(Cc2cccc(F)c2)n1` is > 4 mM (inactive).

Consider `Cn1cc(C(=O)N/N=C/c2ccccc2)ccc1=O`, for which the Kd is > 4 mM (inactive). The figure for `CC1(C)O[C@H]2CC(=O)OC[C@]23[C@H]2CC[C@@]4(C)[C@H](c5ccoc5)OC(=O)[C@H]5O[C@]54[C@]2(C)C(=O)C[C@@H]13` is > 4 mM (inactive); for `O=S1(=O)C=CC(N2CCCCC2)C1` (stereo not given) it is > 4 mM (inactive); for `O=S(=O)(c1ccc(F)c(Cl)c1)N1CCCC1` it is > 4 mM (inactive).

With `CN(C)c1ccc(/C=C2/NC(=S)NC2=O)cc1`, the Kd was > 4 mM (inactive). In the case of `COc1cc(O)c2c(c1)C(=O)c1cc(C)cc(O)c1C2=O`, the Kd is > 4 mM (inactive). The figure for `COC(=O)c1c(C)cc(OC)cc1O` is > 4 mM (inactive); for `O=C(O)c1ccc2c(c1)OCCO2` it is > 4 mM (inactive); for `Brc1cccc(-c2nnco2)c1` it is > 4 mM (inactive). The figure for `Nc1ccc2c(c1)S(=O)(=O)C=C2` is > 4 mM (inactive); for `O=C(O)CCC(=O)NCc1cccnc1` it is > 4 mM (inactive). The figure for `O=C(Nc1ccncc1)c1c(F)cccc1F` is > 4 mM (inactive); for `COC(=O)CC1NC2CCCCC2NC1=O` (stereo not given) it is > 4 mM (inactive); for `Nc1ncnc(NCCO)c1[N+](=O)[O-]` it is > 4 mM (inactive). Regarding `CCC(=O)NC(=S)Nc1ccc(N2CCOCC2)cc1`, the Kd is > 4 mM (inactive). The result for `CC(=O)Nn1cc2c(=O)n(C)c(=O)n(C)c2c1` reads > 4 mM (inactive); that for `Cc1n[nH]c(C)c1CN`, > 4 mM (inactive); that for `COCc1cc(=O)oc2cc(O)c(Cl)cc12`, > 4 mM (inactive). The result for `O=C(/C(=N\O)n1cncn1)c1ccccc1Cl` reads > 4 mM (inactive); that for `O=C(C1CCCCC1)N1CCN(c2ccccc2F)CC1`, > 4 mM (inactive); that for `C(=N\c1nccs1)/c1cccnc1`, > 4 mM (inactive).

As for `O=C(c1ccco1)N1CCNCC1`, the Kd is > 4 mM (inactive). The result for `O=C(O)c1cccc(CSc2ncccn2)c1` reads > 4 mM (inactive). The figure for `O=C(O)c1csc(-c2ccccc2)n1` is > 4 mM (inactive); for `O=C1N=c2ccccc2=C1c1sc(=S)[nH]c1O` it is > 4 mM (inactive). In the case of `c1ccc2[nH]c(SCc3cscn3)nc2c1`, the Kd is > 4 mM (inactive). The figure for `O=C(Nc1nnc(-c2cccnc2)o1)c1ccccc1F` is > 4 mM (inactive).

Turning to `Cc1nc2c(=O)[nH]c3ccccc3c2o1`, the Kd was > 4 mM (inactive). The figure for `CC(C(N)=O)N1C(=O)c2ccccc2C1=O` (stereo not given) is > 4 mM (inactive); for `CC(C)c1ccc2c(c1)CCC1C(C)(C(N)=O)CCCC21C` (stereo not given) it is > 4 mM (inactive); for `NC(=O)CN1C(=O)c2cccc3cccc1c23` it is > 4 mM (inactive).

As for `C[N+](C)(C)CC(=O)[O-]`, the Kd was > 4 mM (inactive). The result for `NC(CCC(=O)Nc1ccc([N+](=O)[O-])cc1)C(=O)O` (stereo not given) reads > 4 mM (inactive); that for `CCn1c(-c2ccccc2)n[nH]c1=S`, > 4 mM (inactive); that for `COc1ccc([C@H]2Oc3c(I)c(OC)cc(OC)c3C[C@@H]2O)cc1OC`, > 4 mM (inactive). Regarding `CCOC(=O)c1snnc1-c1ccccc1`, the Kd is > 4 mM (inactive).

Regarding `COc1ccc(C(=O)NC2=NCCS2)cc1OC`, the Kd was > 4 mM (inactive).

`CC(C)=NNC(=O)C(=O)NC(C)(C)C`: the Kd was > 4 mM (inactive). `O=c1cnnc(NCc2ccc(F)cc2)[nH]1`: the Kd was > 4 mM (inactive). The figure for `S=C(c1ccc2c(c1)OCO2)N1CCCC1` is > 4 mM (inactive); for `O=C1C2C3CCC(O3)C2C(=O)N1c1cccc(F)c1` (stereo not given) it is > 4 mM (inactive).

Take `CCOC(=O)c1cnn2ccccc12`: the Kd was > 4 mM (inactive).

`CC(=O)Nc1cccc(N(C)S(C)(=O)=O)c1`: the Kd is > 4 mM (inactive).

For `Cn1cnc2c(Cl)ncnc21`, the Kd was > 4 mM (inactive). `O=C(Nc1ccccn1)C(=O)N1CCCC1`: the Kd is > 4 mM (inactive).

As to `CN(C)c1nc(N2CCOCC2)nc(N2CCOCC2)n1`, the Kd was > 4 mM (inactive). The result for `O=c1[nH]cc(N=Cc2ccc(F)cc2)c(=O)[nH]1` reads > 4 mM (inactive); that for `Cc1c(C(=O)Nc2cnccn2)oc2ccccc12`, > 4 mM (inactive); that for `CC(C)NC1CS(=O)(=O)CC1O` (stereo not given), > 4 mM (inactive). The result for `Cc1nc2sc3c(c2c(=N)n1N)CC(C)(C)OC3` reads > 4 mM (inactive). The figure for `O=c1ccc2c([nH]1)CCCC2` is > 4 mM (inactive); for `O=C(Cc1cccs1)Nc1ccccn1` it is > 4 mM (inactive). On to `O=C(NN1CCOCC1)c1ccccc1F`, for which the Kd was > 4 mM (inactive). The figure for `O=C(c1ccccc1)c1ccccc1C(=O)N1CCCC1` is > 4 mM (inactive); for `OCCNC(=S)Nc1ccc(F)cc1` it is > 4 mM (inactive); for `NCc1ccc2c(c1)OCCO2` it is > 4 mM (inactive). The figure for `O=C1C=CC2=C3c4cc(O)c(O)cc4C[C@@]3(O)COC2=C1` is > 4 mM (inactive); for `CC(O)C(=O)N/N=C/c1cccs1` (stereo not given) it is > 4 mM (inactive); for `N#Cc1cnn(-c2ccc(Cl)cc2)c1N` it is > 4 mM (inactive). The figure for `O=C(CSc1nc2ccccc2[nH]1)N1CCCCC1` is > 4 mM (inactive). For the compound `CC(=O)O[C@@H]1CC2C(C)(C)C(=O)[C@@H]3O[C@@H]3[C@]2(C)C2CC[C@]3(C)C(=CC(=O)O[C@H]3c3ccoc3)[C@@]21C` (stereo not given in full), the Kd was > 4 mM (inactive).
